Experimental data from patent publication US20230089966A1, “METHOD FOR DIFFERENTIATION OF BRAIN MURAL CELLS FROM HUMAN PLURIPOTENT STEM CELLS” (WISCONSIN ALUMNI RESEARCH FOUNDATION, priority 2021, published 2023).

Experiments:
[1] = target: T1, Notch intracellular domain-RBPJ assembly (Homo sapiens, UniProt Q06330); experiment: Loss-of-function experiment, RT-qPCR of mural cell gene expression; assay type: cell-based; conditions: 10 μM CB-103 in culture medium; 6 days after transduction of neural crest cells
T1 construct: corresponding to amino acids 1,662-2,321 of NP_00426.2; initiator Met (start codon supplied by the forward primer) (N); expressed in transfected cells; host or cells: H9 hPSC-derived p75+ neural crest cells transduced with N3ICD-GFP (pWPI-N3ICD) lentivirus; RBPJ is endogenous
T1 sequence (Q06330 whole entry, the tested form may be a part): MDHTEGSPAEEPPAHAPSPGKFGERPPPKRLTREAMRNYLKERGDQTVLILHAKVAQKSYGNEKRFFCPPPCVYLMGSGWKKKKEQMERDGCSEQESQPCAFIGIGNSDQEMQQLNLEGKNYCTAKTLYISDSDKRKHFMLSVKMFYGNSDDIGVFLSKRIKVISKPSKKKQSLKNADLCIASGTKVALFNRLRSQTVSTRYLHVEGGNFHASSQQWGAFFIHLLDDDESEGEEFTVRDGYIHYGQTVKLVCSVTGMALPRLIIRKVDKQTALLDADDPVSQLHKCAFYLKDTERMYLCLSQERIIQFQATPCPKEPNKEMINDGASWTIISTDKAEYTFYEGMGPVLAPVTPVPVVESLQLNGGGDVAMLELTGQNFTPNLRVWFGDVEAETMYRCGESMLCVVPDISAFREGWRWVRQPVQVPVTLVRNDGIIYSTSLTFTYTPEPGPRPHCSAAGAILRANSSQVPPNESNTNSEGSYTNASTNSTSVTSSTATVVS
Description: When neural crest cells reached ˜40-50% confluence (˜2-3 days post-MACS), lentiviral transduction was performed by replacing medium in each well E6-CSFD medium containing 30-50 μL N3ICD-GFP, N1ICD-GFP, or TBX2-GFP lentivirus per mL, or 5-8 μL GFP (control) lentivirus per mL, which achieved transduction efficiencies of 50-80%. E6-CSFD medium was replaced every other day for 6 days. In some experiments, culture medium was supplemented with 10 μM CB-103 (MedChemExpress, Monmouth Junction, N.J.). The resulting cultures were either used directly for analysis or sorted to isolate GFP^+ and GFP^− cells as described below.
RNA extraction was performed using the RNeasy Plus Micro Kit (Qiagen). Cells were lysed with 350 μL Buffer RLT supplemented with 1% β-mercaptoethanol (Sigma) and transferred to gDNA Eliminator spin columns. 350 μL 70% ethanol was added to each lysate, and lysates were loaded onto RNeasy MinElute spin columns. Columns were washed with Buffer RW1, Buffer RPE, and 80% ethanol according to manufacturer protocols. RNA was eluted with RNase-free water and concentration quantified using a NanoDrop 2000 spectrophotometer (Thermo Scientific, Waltham, Mass.). 250-1000 ng of RNA was reverse-transcribed for 1 h at 37° C. using the OmniScript RT Kit (Qiagen) and 1 μM Oligo(dT)12-18 primers (Life Technologies). […]

[2] = system: N3ICD-GFP-transduced culture; experiment: Calcium imaging after KCl application; assay type: cell-based, human; conditions: 40 mM KCl, 6 days after transduction
Description: Calcium imaging was performed 6 days after transduction of a neural crest cultures with N3ICD-GFP lentivirus as described above. FLIPR Calcium 6 dye (Molecular Devices, San Jose, Calif.) was prepared according to manufacturer instructions. 500 μL of prepared dye was added to the existing 500 μL of culture medium and cells incubated at 37° C., 5% CO2 for 2 h. The plate was transferred to a microscope environmental chamber at 37° C., 5% CO2 and equilibrated for 30 min. Images were acquired every 5 s for 300 s using an Eclipse Ti2-E microscope with a 4× objective. At t=50 s, a 1:114 dilution of saturated KCl solution (4.56 M, for a final concentration of 40 mM) was added to the well.

[3] = system: GFP+ cells isolated via FACS from a N3ICD-GFP-transduced culture; experiment: Contraction assay (change in cell area); assay type: cell-based, human; conditions: 40 mM KCl, 15 min after addition; GFP+ cells 2 days after FACS; water control 0% change
Description: The contraction assay was performed 2 days after isolation of GFP^+ cells via FACS from a N3ICD-GFP-transduced culture as described above. The plate was transferred to a microscope environmental chamber at 37° C., 5% CO2 and equilibrated for 30 min. At t=0 min, a 1:114 dilution of saturated potassium chloride solution, or an equivalent volume of water, was added to the culture medium and the plate briefly rocked to mix. Phase contrast images were acquired immediately upon addition of potassium chloride or water and 15 min thereafter using an Eclipse Ti2-E microscope with a 20× objective. The Freehand Selection Tool in ImageJ was used to trace the outlines of 16 cells per 20× field at times 0 and 15 min, and the Measure function used to obtain A0 and A15, the cell areas at times 0 and 15 min, respectively. For each cell, the percent change in area was computed as (A15−A0)/A0×100%.

[4] = target: T2, KATP channels (Homo sapiens, UniProt O60706); experiment: KATP channel function by calcium imaging after KCl-induced depolarization; assay type: cell-based; conditions: 20 μM pinacidil pretreatment, 40 mM KCl, 30 s after addition
T2 construct: endogenous in cells; host or cells: hPSC-derived neural crest cultures 6 days after transduction with GFP or N3ICD-GFP lentivirus
T2 sequence (O60706 whole entry): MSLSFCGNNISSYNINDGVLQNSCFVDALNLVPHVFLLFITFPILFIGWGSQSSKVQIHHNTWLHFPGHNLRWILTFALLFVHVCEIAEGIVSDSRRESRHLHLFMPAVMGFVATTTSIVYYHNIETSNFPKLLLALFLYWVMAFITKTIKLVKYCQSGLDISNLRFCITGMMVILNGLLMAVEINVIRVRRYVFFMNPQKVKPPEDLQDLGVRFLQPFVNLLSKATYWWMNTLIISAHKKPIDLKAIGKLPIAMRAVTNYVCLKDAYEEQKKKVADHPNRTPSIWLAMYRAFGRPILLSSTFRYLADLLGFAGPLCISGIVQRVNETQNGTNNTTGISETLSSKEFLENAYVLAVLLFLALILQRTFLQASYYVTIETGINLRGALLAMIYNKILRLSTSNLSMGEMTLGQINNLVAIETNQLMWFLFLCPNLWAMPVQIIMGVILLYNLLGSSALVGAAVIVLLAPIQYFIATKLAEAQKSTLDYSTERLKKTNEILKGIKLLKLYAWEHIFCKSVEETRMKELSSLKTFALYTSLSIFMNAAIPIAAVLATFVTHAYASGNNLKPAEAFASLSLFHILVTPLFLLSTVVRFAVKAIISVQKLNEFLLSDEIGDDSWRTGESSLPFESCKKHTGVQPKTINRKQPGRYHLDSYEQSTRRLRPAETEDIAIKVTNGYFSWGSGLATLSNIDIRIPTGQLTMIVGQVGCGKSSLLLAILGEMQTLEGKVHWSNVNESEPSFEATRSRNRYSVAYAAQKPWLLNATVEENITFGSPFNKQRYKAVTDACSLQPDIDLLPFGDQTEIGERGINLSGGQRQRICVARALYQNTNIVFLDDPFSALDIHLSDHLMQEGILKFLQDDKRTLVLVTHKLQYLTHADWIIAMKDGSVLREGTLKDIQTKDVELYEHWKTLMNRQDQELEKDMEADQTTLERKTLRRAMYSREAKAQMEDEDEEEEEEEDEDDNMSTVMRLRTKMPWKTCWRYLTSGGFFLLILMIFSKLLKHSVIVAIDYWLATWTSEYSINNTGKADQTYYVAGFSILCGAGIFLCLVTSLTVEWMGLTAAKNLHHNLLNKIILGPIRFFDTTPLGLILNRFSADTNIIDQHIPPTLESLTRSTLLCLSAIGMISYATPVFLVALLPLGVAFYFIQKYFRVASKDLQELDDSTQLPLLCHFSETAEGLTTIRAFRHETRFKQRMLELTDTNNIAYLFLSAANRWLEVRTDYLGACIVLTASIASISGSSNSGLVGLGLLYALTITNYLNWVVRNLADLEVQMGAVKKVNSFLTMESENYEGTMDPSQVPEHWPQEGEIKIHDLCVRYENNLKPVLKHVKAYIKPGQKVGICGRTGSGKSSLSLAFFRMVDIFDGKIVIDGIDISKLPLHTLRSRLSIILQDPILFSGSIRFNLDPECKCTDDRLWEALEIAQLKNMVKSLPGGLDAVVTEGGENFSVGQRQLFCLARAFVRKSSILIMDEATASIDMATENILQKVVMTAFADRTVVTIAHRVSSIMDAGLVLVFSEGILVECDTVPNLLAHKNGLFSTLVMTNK
T2 sequence (Q15842 whole entry partner): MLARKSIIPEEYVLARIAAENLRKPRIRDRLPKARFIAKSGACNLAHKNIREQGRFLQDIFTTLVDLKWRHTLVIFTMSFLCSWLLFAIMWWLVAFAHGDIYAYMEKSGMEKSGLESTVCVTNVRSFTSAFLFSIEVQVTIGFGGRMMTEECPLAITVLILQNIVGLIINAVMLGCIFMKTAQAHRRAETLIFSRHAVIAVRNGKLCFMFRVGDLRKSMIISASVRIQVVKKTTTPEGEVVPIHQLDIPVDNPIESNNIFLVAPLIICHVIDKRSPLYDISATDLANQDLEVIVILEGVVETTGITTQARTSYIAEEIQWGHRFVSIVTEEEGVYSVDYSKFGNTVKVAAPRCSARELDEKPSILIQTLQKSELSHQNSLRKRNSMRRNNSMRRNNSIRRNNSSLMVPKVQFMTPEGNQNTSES
Description: To assess function of KATP channels, cells 6 days after transduction with GFP or N3ICD-GFP lentiviruses were labeled with FLIPR Calcium 6 dye as above, and 20 μM pinacidil (Santa Cruz Biotechnology, Dallas, Tex.) or DMSO added 1.5 h after addition of dye. After an additional 30 min incubation, the plate was transferred to the microscope environmental chamber. Images were acquired every 5 s for 60 s and 40 mM KCl added at t=20 s. Mean fluorescence intensity was quantified as above.

CC(C)(C)c1ccc(Oc2ccc(N)cn2)cc1 [CB-103]
Notch-dependence of N3ICD-GFP-mediated transcriptional changes [1]: confirmed that N3ICD-GFP-mediated transcriptional changes occurred via a canonical Notch transactivation mechanism

[Cl-].[K+] [KCl, potassium chloride]
Calcium response of cells to KCl application [2]: led to depolarization and calcium influx | average reduction in area of cells [3]: approximately 7%

CC(N/C(=N\C#N)Nc1ccncc1)C(C)(C)C (centres unmarked) [pinacidil]
intracellular calcium after KCl-induced depolarization versus DMSO-treated cells ([4]; GFP-transduced cultures): such a difference was not observed | intracellular calcium after KCl-induced depolarization versus DMSO-treated cells ([4]; N3ICD-GFP-transduced cultures): reduced intracellular calcium
